Experimental data as given in US20260226057A1, “TRICYCLIC AZEPINONE DERIVATIVES AS SYSTEM XC INHIBITORS” (UCB BIOPHARMA SRL, priority 2023, published 2026).

What was measured:
[1] = molecular target: T1, System Xc^− cystine/glutamate antiporter (Homo sapiens, UniProt Q9UPY5); test: [^14C]L-Cystine uptake assay; assay type: cell-based; settings: H4 cells, 15 min preincubation, 1 hour at 37° C., sodium-free HEPES buffer; read-out: [^14C] L-Cystine uptake assay (range of pIC50) (converted)
T1 sequence (Q9UPY5 1-501): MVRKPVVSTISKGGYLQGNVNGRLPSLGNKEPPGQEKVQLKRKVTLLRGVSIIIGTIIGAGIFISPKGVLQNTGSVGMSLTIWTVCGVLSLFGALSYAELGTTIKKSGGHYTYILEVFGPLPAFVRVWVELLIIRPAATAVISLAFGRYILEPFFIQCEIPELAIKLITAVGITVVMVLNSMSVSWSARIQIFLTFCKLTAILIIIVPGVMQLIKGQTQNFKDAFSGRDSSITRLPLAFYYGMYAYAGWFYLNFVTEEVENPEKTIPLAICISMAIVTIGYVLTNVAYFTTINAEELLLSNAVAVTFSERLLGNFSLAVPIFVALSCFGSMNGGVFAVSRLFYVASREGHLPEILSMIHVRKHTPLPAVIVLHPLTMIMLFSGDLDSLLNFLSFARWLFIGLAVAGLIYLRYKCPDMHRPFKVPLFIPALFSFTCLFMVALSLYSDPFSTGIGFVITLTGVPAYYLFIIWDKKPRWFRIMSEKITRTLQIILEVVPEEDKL
T1 sequence (P08195 1-529 partner): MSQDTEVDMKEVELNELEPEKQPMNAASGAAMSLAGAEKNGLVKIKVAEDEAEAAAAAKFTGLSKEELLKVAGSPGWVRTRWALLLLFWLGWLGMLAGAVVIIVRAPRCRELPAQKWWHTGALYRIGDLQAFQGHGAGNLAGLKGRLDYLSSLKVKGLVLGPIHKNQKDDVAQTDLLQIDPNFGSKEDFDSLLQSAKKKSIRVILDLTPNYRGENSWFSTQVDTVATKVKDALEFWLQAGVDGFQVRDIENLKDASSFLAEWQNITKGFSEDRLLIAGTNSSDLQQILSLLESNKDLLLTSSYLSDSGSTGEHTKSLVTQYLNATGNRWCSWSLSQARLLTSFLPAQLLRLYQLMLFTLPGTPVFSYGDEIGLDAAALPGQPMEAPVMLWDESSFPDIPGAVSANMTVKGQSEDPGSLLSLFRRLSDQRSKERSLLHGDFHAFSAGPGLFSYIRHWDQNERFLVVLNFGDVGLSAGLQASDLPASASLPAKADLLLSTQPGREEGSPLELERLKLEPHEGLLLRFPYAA
Source text: (§1) By measuring respectively, the concentration of glutamate released outside the cell and the L-cystine uptaken in the cell, with increasing concentrations of compounds of formula (I) according to the present invention, the efficacy of said compounds to inhibit the System Xc^− function can be evaluated.
(§2) The efficacy of the compounds to inhibit system Xc^− is represented by measuring the IC50 which corresponds to the concentration of compound necessary to inhibit 50% of the signals from the two control groups; DMSO 1% and Erastin 50 μM in the respective assays. pIC50 values correspond to −log of the IC50 in Molar.
In this assay, the medium is devoid of sodium to prevent the transport of glutamate by sodium-dependent excitatory amino acid transporters (EAATs). H4 cells were plated on a 96-well CytoStar-T scintillating microplate (PerkinElmer) at 5×10^4 cells/well in the medium described above. After 1 day, cells were washed one time with the sodium-free HEPES buffer and preincubated with test compounds of Formula (I) (1% final DMSO) for 15 min. Uptake was initiated by adding 0.5 μM L-[1,2, 1′,2′-^14C] Cystine (0.02 mCi/mL, PerkinElmer, Waltham, US) and 4.5 μM L-Cystine (Sigma-Aldrich). After 1 hour at 37° C., plates were counted in a MicroBeta^2 microplate counter (PerkinElmer).

[2] = molecular target: T1, System Xc^− cystine/glutamate antiporter; test: Cystine-induced glutamate release assay; assay type: cell-based; set-up: endogenous in cells; host or cells: H4 cells; settings: H4 cells, 50 μM L-Cystine, 2 hours, sodium-free HEPES buffer; read-out: Cystine-induced glutamate release assay (range of pIC50) (converted)
Source text: as §1, §2
Measurement of cystine-induced glutamate release indicates levels of glutamate (outside of the cell) that are dependent on system Xc^− antiporter function. Upon the addition of L-Cystine to H4 cells, intracellular glutamate is counter-transported and exported in the supernatant.
In this assay, the medium is devoid of sodium to prevent the transport of glutamate by sodium-dependent excitatory amino acid transporters (EAATs). H4 cells were plated on 384-well culture plate at 1×10^4 cells/well in Dulbecco's Modified Eagle Medium (DMEM) with L-glutamine, penicillin/streptomycin and 10% fetal bovine serum (all from ThermoFisher Scientific) and incubated in a humidified CO2 incubator at 37° C. After 2 days, cells were washed 4 times with prewarmed sodium-free HEPES buffer (contents in mM: HEPES 10, KCl 5.4, CaCl2 2.5, MgCl2 1, KH2PO4 0.4, D-Glucose 5, Choline chloride 140), pH 7.4. Glutamate release was induced by addition of 50 μM of L-Cystine (Sigma-Aldrich), together with a test compound of Formula (I) at 1% final DMSO concentration. After 2 hours of incubation in the culture incubator, supernatants were transferred to a low-binding polypropylene 384-well plate to determine L-glutamate concentration using Amplex™ Red Glutamic Acid Assay Kit (ThermoFisher Scientific). Briefly, 10 μL of Amplex™ Red working solution was added to 10 μL of the supernatant, then the mixture was incubated for 30 min at 37° C. Fluorescence intensity was measured by EnVision microplate reader (PerkinElmer).

| IC50 [1] | IC50 [2] | Compound |
| --- | --- | --- |
| 39.8 to 100 nM | 100 to 501 nM | CC(=O)c1ccc(NC(=O)CN2C(=O)Cc3ncccc3-c3c2cc(N2CC4(C2)CC4(F)F)nc3Cl)cc1 [#9] |
| 15.8 to 39.8 nM | 100 to 501 nM | CC(=O)c1ccc(NC(=O)CN2C(=O)C(C)c3ncccc3-c3c2cc(N2CC(C)(F)C2)nc3F)cc1 (stereo not shown) [#26] |
| 39.8 to 100 nM | 39.8 to 100 nM | CC(=O)c1ccc(NC(=O)CN2C(=O)C(C)c3ncccc3-c3c2cc(F)nc3F)cc1 (single isomer, unassigned) [#23] |
| 15.8 to 39.8 nM | 15.8 to 39.8 nM | CC(=O)c1ccc(NC(=O)CN2C(=O)[C@H](C)c3ncccc3-c3c2cc(C)nc3F)cc1 [#1] |
| < 15.8 nM | 15.8 to 39.8 nM | CC(=O)c1ccc(NC(=O)CN2C(=O)C(C)c3ncccc3-c3c(F)cc(N4CC(F)C4)cc32)cc1 (stereo not shown) [#35] |
| 100 to 501 nM | 100 to 501 nM | Cc1cc2c(c(F)n1)-c1cccnc1[C@@H](C)C(=O)N2CC(=O)Nc1ccc(C(=O)C2CC2)cc1 [#2] |
| < 15.8 nM | 15.8 to 39.8 nM | COc1nc(C)cc2c1-c1cccnc1C(C)C(=O)N2CC(=O)Nc1ccc(C(C)=O)cc1 (single isomer, unassigned) [#13] |
| < 15.8 nM | < 15.8 nM | CC(=O)c1ccc(NC(=O)CN2C(=O)C(C)c3ncccc3-c3c2cc(C)nc3Cl)cc1 (single isomer, unassigned) [#6] |
| 39.8 to 100 nM | 39.8 to 100 nM | CC(=O)c1ccc(NC(=O)CN2C(=O)C(C)c3ncccc3-c3c2cc(C2(O)CCC2)nc3F)cc1 (stereo not shown) [#29] |
| 15.8 to 39.8 nM | 39.8 to 100 nM | CC(=O)c1ccc(NC(=O)CN2C(=O)C(C)c3ncccc3-c3c2cc(N2CC(C)(O)C2)nc3F)cc1 (stereo not shown) [#25] |
| < 15.8 nM | 39.8 to 100 nM | CC(=O)c1ccc(NC(=O)CN2C(=O)C(C)c3ncccc3-c3c2cc(N2CC(F)(F)C2)nc3F)cc1 (stereo not shown) [#7] |
| 15.8 to 39.8 nM | 15.8 to 39.8 nM | COc1cc2c(c(F)n1)-c1cccnc1C(C)C(=O)N2CC(=O)Nc1ccc(C(C)=O)cc1 (single isomer, unassigned) [#11] |
| 39.8 to 100 nM | 39.8 to 100 nM | CC(=O)c1ccc(NC(=O)CN2C(=O)C(C)c3cnc(F)cc3-c3c2cc(C)nc3F)cc1 (stereo not shown) [#34] |
| < 15.8 nM | < 15.8 nM | CC(=O)c1ccc(NC(=O)CN2C(=O)C(C)c3ncccc3-c3c2cc(N2CC(F)C2)nc3F)cc1 (stereo not shown) [#8] |
| 15.8 to 39.8 nM | 39.8 to 100 nM | CC(=O)c1ccc(NC(=O)CN2C(=O)Cc3ncccc3-c3c2cc(N2CC(C)(O)C2)nc3F)cc1 [#27] |
| 15.8 to 39.8 nM | 15.8 to 39.8 nM | CC(=O)c1ccc(NC(=O)CN2C(=O)C(C)c3ncccc3-c3c2cc(C2CCC2)nc3F)cc1 (stereo not shown) [#31] |
| 39.8 to 100 nM | 39.8 to 100 nM | CCC(=O)c1ccc(NC(=O)CN2C(=O)[C@H](C)c3ncccc3-c3c2cc(C)nc3F)cc1 [#15] |
| < 15.8 nM | 15.8 to 39.8 nM | CC(=O)c1ccc(NC(=O)CN2C(=O)Cc3ncccc3-c3c2cc(N2CC(F)C2)nc3F)cc1 [#21] |
| 39.8 to 100 nM | 100 to 501 nM | CC(=O)c1ccc(NC(=O)CN2C(=O)Cc3ccccc3-c3c2cc(C)nc3F)cc1 [#10] |
| 15.8 to 39.8 nM | 39.8 to 100 nM | CC(=O)c1ccc(NC(=O)CN2C(=O)Cc3ncccc3-c3c2cc(N2CC(F)(F)C2)nc3F)cc1 [#22] |

The remaining lines, values behind:

| Compound | IC50 [1] | IC50 [2] |
| --- | --- | --- |
| CC(=O)c1ccc(NC(=O)CN2C(=O)C(C)c3nscc3-c3c2cc(C)nc3F)cc1 (stereo not shown) [#28] | 100 to 501 nM | 39.8 to 100 nM |
| CC(=O)c1ccc(NC(=O)CN2C(=O)C(C)c3ncc(F)cc3-c3cc(C#N)c(C)cc32)cc1 (single isomer, unassigned) [#19] | < 15.8 nM | 15.8 to 39.8 nM |
| COc1cnc2c(c1)-c1cnc(C)cc1N(CC(=O)Nc1ccc(C(C)=O)cc1)C(=O)C2C (single isomer, unassigned) [#12] | 39.8 to 100 nM | 39.8 to 100 nM |
| CC(=O)c1ccc(NC(=O)CN2C(=O)C(C)c3ncc(F)cc3-c3c2cc(CO)nc3F)cc1 (stereo not shown) [#30] | 100 to 501 nM | 100 to 501 nM |
| Cc1cc2c(c(F)n1)-c1cc(F)cnc1C(C)C(=O)N2CC(=O)Nc1ccc2c(c1)OCC2=O (single isomer, unassigned) [#18] | 39.8 to 100 nM | 39.8 to 100 nM |
| COc1cnc2c(c1)-c1c(cc(C)nc1F)N(CC(=O)Nc1ccc(C(C)=O)cc1)C(=O)C2C (single isomer, unassigned) [#20] | 15.8 to 39.8 nM | 39.8 to 100 nM |
| CC(=O)c1ccc(NC(=O)CN2C(=O)[C@H](C)c3ncc(F)cc3-c3c2cc(C)nc3Cl)cc1 [#5] | < 15.8 nM | < 15.8 nM |
| CC(=O)c1ccc(NC(=O)CN2C(=O)[C@H](C)c3ncc(F)cc3-c3c2cc(C)nc3F)cc1 [#3] | 15.8 to 39.8 nM | 15.8 to 39.8 nM |
| CC(=O)c1ccc(NC(=O)CN2C(=O)C(C)c3ncccc3-c3c2cc(C)nc3F)cc1O (single isomer, unassigned) [#16] | < 15.8 nM | 15.8 to 39.8 nM |
| CC(=O)c1ccc(NC(=O)CN2C(=O)C(C)c3ncc(F)cc3-c3cnc(C)cc32)cc1 (stereo not shown) [#4] | 39.8 to 100 nM | 39.8 to 100 nM |
| COc1nccc2c1-c1cccnc1C(C)C(=O)N2CC(=O)Nc1ccc(C(C)=O)cc1 (single isomer, unassigned) [#14] | 15.8 to 39.8 nM | 39.8 to 100 nM |
| COc1cc2c(c(F)n1)-c1cc(F)cnc1C(C)C(=O)N2CC(=O)Nc1ccc(C(C)=O)cc1 (single isomer, unassigned) [#17] | < 15.8 nM | 39.8 to 100 nM |
| COc1cc2c(cn1)-c1cc(F)cnc1C(C)C(=O)N2CC(=O)Nc1ccc(C(C)=O)cc1 (single isomer, unassigned) [#32] | 15.8 to 39.8 nM | 100 to 501 nM |
| CC(=O)c1ccc(NC(=O)CN2C(=O)C(C)c3ncccc3-c3c2cc(C)nc3F)cc1F (stereo not shown) [#24] | 15.8 to 39.8 nM | 39.8 to 100 nM |
| CC(=O)c1ccc(NC(=O)CN2C(=O)C(C)c3ncc(F)cc3-c3c2cc(C)nc3F)cc1O (single isomer, unassigned) [#33] | < 15.8 nM | < 15.8 nM |
